Where two headings read alike, the source gives them in different places. Blank lines part the entries; values can stand above or below the molecule they belong to. Positions of bridges follow the written chain, without caps; N, C: chain ends. Non-standard residues stand in square brackets, D forms with d. Residues, ends and D or L forms follow the SMILES beside them. NMeC = CN[C@@H](CS)C(=O)O; NMeA = CN[C@@H](C)C(=O)O; dAbu = CC[C@@H](N)C(=O)O; dNMeA = CN[C@H](C)C(=O)O; Abu = CC[C@H](N)C(=O)O; Nleu = CC(C)CNCC(=O)O
How the values were obtained:
[1] = tested on: Mdr1 knockout Madin–Darby canine kidney (MDCK) cells
Description: (§1) We also tested the permeabilities of the pure compounds in a cell-based trans-well permeability assay using Mdr1 knockout Madin–Darby canine kidney (MDCK) cells which minimize the endogenous efflux activity of traditional MDCK cells.[54]
(§2) The gMDCKI cell line (overexpressed cell line of Madin -Darby Canine Kidney which acquired from the NIH)
(§3) maintained in DMEM medium supplemented with 1% pen -strep, 5 µg/mL Plasmocin, and 10% FBS under
(§4) standard culture conditions (37 °C, 95% humidity, and 5% CO2), were seeded (0.75 x 10^5 cells) on the HTS
(§5) Transwell-96 permeable support (Corning) to form a confluent monolayer for two days.
(§6) All experimental steps were fully automated on Hamilton Vantage. Compound stock solution (1 mM in
(§7) DMSO) was diluted (10 μM final in HBSS, pH 7.4) with Lucifer Yellow as leakage indicator (20 μM). After
(§8) washing with HBSS buffer, the solution of test compounds was added to the apical side of the monolayers.
(§9) The plate was incubated for 3 h at 37 °C. T0 samples (10 µL of the 10 µM compounds diluted solution with
(§10) LY) were transferred to a 96-well plate, and then 40 µL of HBSS was added. After 3 hours, 50 μL basolateral
(§11) samples in the receiving plate were transferred to a fresh 96-well plate and added 100 μL of IS solution
(§12) (Propranolol). LY were read by plate reader and the samples were analyzed by LC/MS/MS.
(§13) The apparent permeability coefficient (Papp) is calculated from the permeation rate and compound
concentration at t=0h and t=3h. Where:
(§14) dQ/dt: amount of product present in the basal (A-B) or apical (B-A) compartment as a function of time
A: area of transwell (cm2).
(§15) C0: initial concentration of product applied in the apical (A -B) or basal (B-A) compartment (nmol/ml).

[2] = MDCK
Description: as §1, §2, §3, §4, §5, §6, §7, §8, §9, §10, §11, §12, §13
concentration at t=0h and t=3h. Where:
as §14
A: area of transwell (cm2).
as §15

[3] = PAMPA, individually resynthesized pure compounds (primary protocol);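 further: artificial membrane of 1% soy lecithin in dodecane on a filter plate, donor and acceptor buffer PBS pH 7.4 with 5% DMSO, incubated overnight at room temperature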
Description: (§16) assay was carried out with a 96-well donor plate with 0.45 μ hydrophobic Immobilon-P membrane supports
(§17) (Millipore MAIPNTR10) and a 96-well Teflon acceptor plate (Millipore MSSACCEPTOR). The PAMPA
protocol then proceeded as follows:
(§18) Donor well solutions were prepared to a volume of 1 000 µL with the analytes as a solution in 1X
(§19) PBS pH 7.4 and 5% DMSO. To a 3 mL Eppendorf tube was added 950 µL of 1X PBS pH 7.4, 40
Analyte – 10 µM per compound
(§20) sonicated (5 min) to ensure full dissolution of the lecithin. The donor membrane plate was turned
(§21) upside down and bottom of the membranes exposed. 5 µL of the 1% soy lecithin solution in
(§22) dodecane was then placed on the bottom of the membrane, allowing the drop to spread across the
(§23) full area of the membrane. Any membranes with visible damage were not used in the assay. The
(§24) membranes were allowed to equilibrate for 5 min before loading.
(§25) 3. Each well within the Teflon block acceptor plate that was to be used in the assay was then loaded
(§26) with 300 µL of 1X PBS pH 7.4 and 5% DMSO.
(§27) Working without break, 150 µL of each donor well solution was transferred from the to the 96-well
(§28) donor plate. Each mixture of interest was r un in quadruplicate, using a new well for each replicate.
(§29) As soon as the 96-well donor plate was finished being loaded, it was gently placed into the 96-well
(§30) Teflon acceptor plate, taking care not to trap any air bubbles beneath the membrane.
(§31) The donor/acceptor plates were covered gently with the lid to minimize evaporation and transferred
(§32) gently as a system to a sealed chamber and left to sit overnight at room temperature. The chamber
(§33) was kept from drying by placing a wet paper towel within to prevent evaporation.
(§34) After ~19-20 hours the donor plate was removed from the acceptor plate.
(§35) 50 µL of each well (donor and acceptor) were transferred to a 96 -well plate and diluted with 50 µL
(§36) of methanol prior to heat sealing and quantification by UPLC -MS.

in vitro [4] = conditions: dog, pH 7.4
Description: as §1, §2, §3, §4, §5, §6, §7, §8, §9, §10, §11, §12, §13
concentration at t=0h and t=3h. Where:
as §14
A: area of transwell (cm2).
as §15

[5] = PAMPA
Description: as §16, §17
protocol then proceeded as follows:
as §18, §19
Analyte – 10 µM per compound
as §20, §21, §22, §23, §24, §25, §26, §27, §28, §29, §30, §31, §32, §33, §34, §35, §36

in vitro [6] = conditions: PAMPA
Description: as §16, §17
protocol then proceeded as follows:
as §18, §19
Analyte – 10 µM per compound
as §20, §21, §22, §23, §24, §25, §26, §27, §28, §29, §30, §31, §32, §33, §34, §35, §36

[7] = resynthesized stereoscan compounds, 10 μM, HBSS pH 7.4, 3 h

Compound: CCOC(=O)[C@@H]1CSCC(=O)N[C@H](CC)C(=O)N(C)[C@@H](C)C(=O)N[C@@H](CC(C)C)C(=O)N(C)[C@H](C)C(=O)N(CC(C)C)CC(=O)N[C@H](CC(C)C)C(=O)N(C)[C@H](C)C(=O)N[C@@H](CC(C)C)C(=O)N1C [A1, O=C(N(C)[C@H](C(OCC)=O)CSCC(N[C@@H](C(N(C)[C@@H](C)C(N[C@@H](CC(C)C)C(N(C)[C@H](C)C(N(CC(C)C)CC(N[C@@H]1CC(C)C)=O)=O)=O)=O)=O)CC)=O)[C@H](CC(C)C)NC([C@@H](C)N(C)C1=O)=O] ({CH2CO}-[dAbu][NMeA]L[dNMeA][Nleu][dL][dNMeA]L[NMeC]-OEt; thioether N-9)
MDCK Pe_avg [1, 7]: 90.2 nm/s
Papp [2]: 90 nm/s
Papp ([3]; PAMPA Papp, Figure 5): 100 nm/s
Papp ([3]; Papp): ~100 nm/s

Compound: CCOC(=O)[C@@H]1CSCC(=O)N[C@@H](CC)C(=O)N(C)[C@@H](C)C(=O)N[C@@H](CC(C)C)C(=O)N(C)[C@H](C)C(=O)N(CC(C)C)CC(=O)N[C@H](CC(C)C)C(=O)N(C)[C@H](C)C(=O)N[C@@H](CC(C)C)C(=O)N1C [A1-1L, O=C(N(C)[C@H](C(OCC)=O)CSCC(N[C@H](C(N(C)[C@@H](C)C(N[C@@H](CC(C)C)C(N(C)[C@H](C)C(N(CC(C)C)CC(N[C@@H]1CC(C)C)=O)=O)=O)=O)=O)CC)=O)[C@H](CC(C)C)NC([C@@H](C)N(C)C1=O)=O] ({CH2CO}-[Abu][NMeA]L[dNMeA][Nleu][dL][dNMeA]L[NMeC]-OEt; thioether N-9)
Papp [2]: 9 nm/s
Papp A→B (in vitro [4]): 9.3 nm/s

Papp [5]: 3 nm/s
MDCK Papp ([1]; MDCK): 0.0 × 10^–6 cm/s
Papp A→B at 3 h, 10 µM (in vitro [4]): 0.246 nm/s
Papp at 10 µM (in vitro [6]; pH 7.4, PAMPA Pe_avg): 3.98 nm/s
Compound: CCOC(=O)[C@@H]1CSCC(=O)N[C@H](CC)C(=O)N(C)[C@@H](C)C(=O)N[C@@H](CC(C)C)C(=O)N2CCC[C@@H]2C(=O)N(CC(C)C)CC(=O)N[C@H](CC(C)C)C(=O)N(C)[C@H](C)C(=O)N[C@@H](CC(C)C)C(=O)N1C [A1-4dP, O=C(N(C)[C@H](C(OCC)=O)CSCC(N[C@@H](C(N(C)[C@@H](C)C(N[C@@H](CC(C)C)C(N1[C@H](CCC1)C(N(CC(C)C)CC(N[C@@H]2CC(C)C)=O)=O)=O)=O)=O)CC)=O)[C@H](CC(C)C)NC([C@@H](C)N(C)C2=O)=O] ({CH2CO}-[dAbu][NMeA]L[dP][Nleu][dL][dNMeA]L[NMeC]-OEt; thioether N-9)

Compound: CCOC(=O)[C@@H]1CSCC(=O)N[C@H](CC)C(=O)N(C)[C@@H](C)C(=O)N[C@@H](CC(C)C)C(=O)N(C)[C@H](C)C(=O)N(CC(C)C)CC(=O)N[C@@H](CC(C)C)C(=O)N(C)[C@H](C)C(=O)N[C@@H](CC(C)C)C(=O)N1C [A1-6L, O=C(N(C)[C@H](C(OCC)=O)CSCC(N[C@@H](C(N(C)[C@@H](C)C(N[C@@H](CC(C)C)C(N(C)[C@H](C)C(N(CC(C)C)CC(N[C@H]1CC(C)C)=O)=O)=O)=O)=O)CC)=O)[C@H](CC(C)C)NC([C@@H](C)N(C)C1=O)=O] ({CH2CO}-[dAbu][NMeA]L[dNMeA][Nleu]L[dNMeA]L[NMeC]-OEt; thioether N-9)
Papp [2]: 9 nm/s
Papp A→B (in vitro [4]): 8.6 nm/s

Compound: CCOC(=O)[C@@H]1CSCC(=O)N[C@H](CC)C(=O)N(C)[C@@H](C)C(=O)N[C@@H](CC(C)C)C(=O)N(C)[C@H](C)C(=O)N(CC(C)C)CC(=O)N[C@H](CC(C)C)C(=O)N(C)[C@@H](C)C(=O)N[C@@H](CC(C)C)C(=O)N1C [A1-7L, O=C(N(C)[C@H](C(OCC)=O)CSCC(N[C@@H](C(N(C)[C@@H](C)C(N[C@@H](CC(C)C)C(N(C)[C@H](C)C(N(CC(C)C)CC(N[C@@H]1CC(C)C)=O)=O)=O)=O)=O)CC)=O)[C@H](CC(C)C)NC([C@H](C)N(C)C1=O)=O] ({CH2CO}-[dAbu][NMeA]L[dNMeA][Nleu][dL][NMeA]L[NMeC]-OEt; thioether N-9)
MDCK Pe_avg [1, 7]: 64.1 nm/s

MDCK Pe_avg ([1]; dog, MDCK, 3 h, 10 µM, pH 7.4): 12.1 nm/s
Papp at 3 h, 10 µM (in vitro [4]; MDCK): 12 nm/s
Papp at 10 µM (in vitro [6]; pH 7.4, PAMPA Papp): 57 nm/s
Compound: CCOC(=O)[C@@H]1CSCC(=O)N[C@H](CC)C(=O)N(CC(C)C)CC(=O)N[C@@H](CC(C)C)C(=O)N(C)[C@H](C)C(=O)N(C)[C@@H](C)C(=O)N[C@H](CC(C)C)C(=O)N(C)[C@@H](C)C(=O)N[C@@H](CC(C)C)C(=O)N1C [B1-7L, O=C([C@@H](NC([C@@H](N(C([C@H](NC([C@@H](N(C([C@H](N(C)C([C@@H](NC(CN1CC(C)C)=O)CC(C)C)=O)C)=O)C)C)=O)CC(C)C)=O)C)C)=O)CC(C)C)N([C@@H](CSCC(N[C@H](CC)C1=O)=O)C(OCC)=O)C] ({CH2CO}-[dAbu][Nleu]L[dNMeA][NMeA][dL][NMeA]L[NMeC]-OEt; thioether N-9)
